Test results as given in patent US7138361B2, “Herbicidal heterocycles” (E. I. du Pont de Nemours and Company, priority 2000, dated 2006).

How the values were obtained:
Assay in all cases: Test C preemergence
Format in all cases: in vivo
[1] = system: Nightshade; settings: Rate 500 g/ha, visual evaluation after 12 to 14 days
[2] = system: pigweed (Amaranthus retroflexus); settings: preemergence; for Plant response rating, Pigweed: scale 0 to 100, 0 no effect, 100 complete control
Source text: (§1) Seeds of plant species selected from bermudagrass (Cynodon dactylon), Surinam grass (Brachiaria decumbens), cocklebur (Xanthium strumarium), corn (Zea mays), crabgrass (Digitaria sanguinalis), woolly cupgrass (Eriochloa villosa), giant foxtail (Setaria faberii), goosegrass (Eleusine indica), johnsongrass (Sorghum halepense), kochia (Kochia scoparia), lambsquarters (Chenopodium album), morningglory (Ipomoea hederacea), yellow nutsedge (Cyperus esculentus), pigweed (Amaranthus retroflexus), common ragweed (Ambrosia elatior), soybean (Glycine max) and velvetleaf (Abutilon theophrasti) were planted and treated preemergence with test chemicals formulated in a non-phytotoxic solvent mixture which included a surfactant.
(§2) At the same time, plants selected from these crop and weed species and also winter barley (Hordeum vulgare), blackgrass (Alopecurus myosuroides), canary grass (Phalaris minor), chickweed (Stellaria media), downy brome (Bromus tectorum), green foxtail (Setaria viridis), Italian ryegrass (Lolium multiflorum), wheat (Triticum aestivum), wild oat (Avena fatua) and windgrass (Apera spica-venti) were treated with postemergence applications of some of the test chemicals formulated in the same manner. Plants ranged in height from 2 to 18 cm (1- to 4-leaf stage) for postemergence treatments. Plant species in the flooded paddy test consisted of rice (Oryza saliva), smallflower flatsedge (Cyperus difformis), duck salad (Heteranthera limosa) and barnyardgrass (Echinochloa crus-galli) grown to the 2-leaf stage for testing. Treated plants and controls were maintained in a greenhouse for 12 to 14 days, after which time all species were compared to controls and visually evaluated. Plant response ratings, summarized in Table C, are based on a scale of 0 to 100 where 0 is no effect and 100 is complete control. A dash (-) response means no test result.

[3] = system: yellow nutsedge (Cyperus esculentus); settings: for Plant response rating, Nutsedge: scale 0 to 100, 0 no effect, 100 complete control
Source text: as §1, §2

[4] = system: bermudagrass (Cynodon dactylon); settings: for Plant response rating, Bermudagrass: scale 0 to 100, 0 no effect, 100 complete control; for Plant response rating (0 to 100 where 0 is no effect and 100 is complete control), Bermudagrass: visual evaluation after 12 to 14 days
Source text: as §1, §2

[5] = system: woolly cupgrass (Eriochloa villosa); settings: for Plant response rating, Cupgrass, Woolly: scale 0 to 100, 0 no effect, 100 complete control; for Plant response rating (0 to 100), Cupgrass, Woolly: visual evaluation after 12 to 14 days
Source text: as §1, §2

[6] = system: crabgrass (Digitaria sanguinalis); settings: for Plant response rating, Crabgrass: scale 0 to 100, 0 no effect, 100 complete control; for Plant response rating (0 to 100), Crabgrass: visual evaluation after 12 to 14 days
Source text: as §1, §2

[7] = system: johnsongrass (Sorghum halepense); settings: for Plant response rating, Johnsongrass: scale 0 to 100, 0 no effect, 100 complete control; for Plant response rating (0 to 100), Johnsongrass: visual evaluation after 12 to 14 days
Source text: as §1, §2

[8] = system: common ragweed (Ambrosia elatior); settings: preemergence; for Plant response rating, Ragweed, Common: scale 0 to 100, 0 no effect, 100 complete control
Source text: as §1, §2

[9] = system: goosegrass (Eleusine indica); settings: for Plant response rating, Goosegrass: scale 0 to 100, 0 no effect, 100 complete control; for Plant response rating (0 to 100), Goosegrass: visual evaluation after 12 to 14 days
Source text: as §1, §2

[10] = system: Surinam grass (Brachiaria decumbens); settings: for Plant response rating, Surinam grass: scale 0 to 100, 0 no effect, 100 complete control; for Plant response rating (0 to 100), Surinam grass: visual evaluation after 12 to 14 days
Source text: as §1, §2

[11] = system: cocklebur (Xanthium strumarium); settings: for Plant response rating, Cocklebur: scale 0 to 100, 0 no effect, 100 complete control; for Plant response rating (0 to 100), Cocklebur: visual evaluation after 12 to 14 days
Source text: as §1, §2

[12] = system: velvetleaf (Abutilon theophrasti); settings: preemergence; for Plant response rating, Velvetleaf: scale 0 to 100, 0 no effect, 100 complete control
Source text: as §1, §2

[13] = system: kochia (Kochia scoparia); settings: for Plant response rating, Kochia: scale 0 to 100, 0 no effect, 100 complete control; for Plant response rating (0 to 100), Kochia: visual evaluation after 12 to 14 days
Source text: as §1, §2

[14] = system: giant foxtail (Setaria faberii); settings: for Plant response rating, Foxtail, Giant: scale 0 to 100, 0 no effect, 100 complete control; for Plant response rating (0 to 100), Foxtail, Giant: visual evaluation after 12 to 14 days
Source text: as §1, §2

[15] = system: soybean (Glycine max); settings: preemergence; for Plant response rating, Soybean: scale 0 to 100, 0 no effect, 100 complete control
Source text: as §1, §2

[16] = system: morningglory (Ipomoea hederacea); settings: for Plant response rating, Morningglory: scale 0 to 100, 0 no effect, 100 complete control
Source text: as §1, §2

[17] = system: Nightshade; settings: scale 0 to 100, 0 no effect, 100 complete control
Source text: as §1, §2

[18] = system: corn (Zea mays); settings: for Plant response rating, Corn: scale 0 to 100, 0 no effect, 100 complete control; for Plant response rating (0 to 100), Corn: visual evaluation after 12 to 14 days
Source text: as §1, §2

[19] = Rate 500 g/ha, visual evaluation after 12 to 14 days
[20] = preemergence, Rate 500 g/ha, visual evaluation after 12 to 14 days

Structure (SMILES): CC1(c2ccn(C3SCN(c4cccc(C(F)(F)F)c4)C3=O)n2)CC1 (stereo not shown) [Compound 64]
- Plant response rating (0 to 100), Nightshade [1]: 90
- Plant response rating (0 to 100), Pigweed [2, 19]: 100
- Plant response rating, Pigweed ([2]; Rate 125 g/ha): 100
- Plant response rating, Pigweed ([2]; Rate 250 g/ha): 100
- Plant response rating, Nutsedge ([3]; Rate 62 g/ha): 0
- Plant response rating (0 to 100), Nutsedge [3, 20]: 50
- Plant response rating, Nutsedge ([3]; preemergence, Rate 125 g/ha): 0
- Plant response rating, Nutsedge ([3]; preemergence, Rate 250 g/ha): 50
- Plant response rating, Bermudagrass ([4]; Rate 62 g/ha): 100
- Plant response rating (0 to 100 where 0 is no effect and 100 is complete control), Bermudagrass ([4]; preemergence, Rate 250 g/ha): 100
- Plant response rating (0 to 100 where 0 is no effect and 100 is complete control), Bermudagrass ([4]; preemergence, Rate 500 g/ha): 100
- Plant response rating, Bermudagrass ([4]; preemergence, Rate 125 g/ha): 100
- Plant response rating, Cupgrass, Woolly ([5]; Rate 62 g/ha): 30
- Plant response rating (0 to 100), Cupgrass, Woolly ([5]; preemergence, Rate 250 g/ha): 90
- Plant response rating (0 to 100), Cupgrass, Woolly ([5]; preemergence, Rate 500 g/ha): 100
- Plant response rating, Cupgrass, Woolly ([5]; preemergence, Rate 125 g/ha): 50
- Plant response rating, Crabgrass ([6]; Rate 62 g/ha): 100
- Plant response rating (0 to 100), Crabgrass ([6]; preemergence, Rate 250 g/ha): 100
- Plant response rating (0 to 100), Crabgrass ([6]; preemergence, Rate 500 g/ha): 100
- Plant response rating, Crabgrass ([6]; preemergence, Rate 125 g/ha): 100
- Plant response rating, Johnsongrass ([7]; Rate 62 g/ha): 30
- Plant response rating (0 to 100), Johnsongrass ([7]; preemergence, Rate 250 g/ha): 90
- Plant response rating (0 to 100), Johnsongrass ([7]; preemergence, Rate 500 g/ha): 100
- Plant response rating, Johnsongrass ([7]; preemergence, Rate 125 g/ha): 70
- Plant response rating (0 to 100), Ragweed, Common [8, 19]: 90
- Plant response rating, Ragweed, Common ([8]; Rate 125 g/ha): 50
- Plant response rating, Ragweed, Common ([8]; Rate 250 g/ha): 80
- Plant response rating, Goosegrass ([9]; Rate 62 g/ha): 100
- Plant response rating (0 to 100), Goosegrass ([9]; preemergence, Rate 250 g/ha): 100
- Plant response rating (0 to 100), Goosegrass ([9]; preemergence, Rate 500 g/ha): 100
- Plant response rating, Goosegrass ([9]; preemergence, Rate 125 g/ha): 100
- Plant response rating, Surinam grass ([10]; Rate 62 g/ha): 0
- Plant response rating (0 to 100), Surinam grass ([10]; preemergence, Rate 250 g/ha): 90
- Plant response rating (0 to 100), Surinam grass ([10]; preemergence, Rate 500 g/ha): 100
- Plant response rating, Surinam grass ([10]; preemergence, Rate 125 g/ha): 50
- Plant response rating, Cocklebur ([11]; Rate 62 g/ha): 0
- Plant response rating (0 to 100), Cocklebur ([11]; preemergence, Rate 250 g/ha): 20
- Plant response rating (0 to 100), Cocklebur ([11]; preemergence, Rate 500 g/ha): 30
- Plant response rating, Cocklebur ([11]; preemergence, Rate 125 g/ha): 0
- Plant response rating (0 to 100), Velvetleaf [12, 19]: 50
- Plant response rating, Velvetleaf ([12]; Rate 125 g/ha): 0
- Plant response rating, Velvetleaf ([12]; Rate 250 g/ha): 20
- Plant response rating, Kochia ([13]; Rate 62 g/ha): 90
- Plant response rating (0 to 100), Kochia ([13]; preemergence, Rate 250 g/ha): 100
- Plant response rating (0 to 100), Kochia ([13]; preemergence, Rate 500 g/ha): 100
- Plant response rating, Kochia ([13]; preemergence, Rate 125 g/ha): 100
- Plant response rating, Foxtail, Giant ([14]; Rate 62 g/ha): 0
- Plant response rating (0 to 100), Foxtail, Giant ([14]; preemergence, Rate 250 g/ha): 100
- Plant response rating (0 to 100), Foxtail, Giant ([14]; preemergence, Rate 500 g/ha): 30
- Plant response rating, Foxtail, Giant ([14]; preemergence, Rate 125 g/ha): 50
- Plant response rating (0 to 100), Soybean [15, 19]: 30
- Plant response rating, Soybean ([15]; Rate 125 g/ha): 20
- Plant response rating, Soybean ([15]; Rate 250 g/ha): 20
- Plant response rating, Morningglory ([16]; Rate 62 g/ha): 40
- Plant response rating (0 to 100), Morningglory [16, 20]: 60
- Plant response rating, Morningglory ([16]; preemergence, Rate 125 g/ha): 40
- Plant response rating, Morningglory ([16]; preemergence, Rate 250 g/ha): 40
- Plant response rating, Nightshade ([17]; Rate 62 g/ha): 30
- Plant response rating, Nightshade ([17]; Rate 125 g/ha): 70
- Plant response rating, Nightshade ([17]; Rate 250 g/ha): 90
- Plant response rating, Corn ([18]; Rate 62 g/ha): 0
- Plant response rating (0 to 100), Corn ([18]; preemergence, Rate 250 g/ha): 30
- Plant response rating (0 to 100), Corn ([18]; preemergence, Rate 500 g/ha): 40
- Plant response rating, Corn ([18]; preemergence, Rate 125 g/ha): 0
